Where a name gives a salt, the structure may show the parent alone. Read-outs that look alike come from different tables or passages of the source.
Legend:
[1] = system: SARS-CoV-2; assay: Checkerboard synergy study with remdesivir (ZIP model, synergyfinder); format: cell-based
[2] = mouse, cited from earlier work
[3] = system: SARS-CoV-2; assay: microbe, parasite or virus in culture
[4] = system: HeLa-ACE2 cells; assay: cells; format: cell-based, human; conditions: Homo sapiens, HeLa-ACE2, read-out: HeLa-ACE-2 EC50 [μM] (Geomeans, n ≥ 2)
[5] = in vitro; conditions: human
[6] = system: SARS-CoV-2
[7] = system: SARS-CoV-2; assay: Time of addition (TOA) assay in HeLa-ACE2 cells; format: cell-based; conditions: for activity when treatment initiated at 1 hpi: 10 μM, HeLa-ACE2, time course 4 to 24 hpi
[8] = system: SARS-CoV-2; remark: listed apart in the source
[9] = in vivo; cited from earlier work
[10] = human, oral; cited from earlier work
[11] = system: HeLa-ACE2 cells; conditions: human
[12] = COVID-19 patients; shortened from 15; cited from earlier work
[13] = system: SARS-CoV-2; assay: microbe, parasite or virus in culture; conditions: Severe acute respiratory syndrome coronavirus 2, Calu-3, read-out: Calu-3 SARS-CoV-2 EC50
[14] = system: SARS-CoV-2; assay: SARS-CoV-2 primary ALI HBEC model; format: cell-based; conditions: apical washes 72 hpi
Description: SARS-CoV-2 primary ALI HBEC model. Normal primary human bronchial epithelial cells (HBECs) (Lonza) were cultured in Millicell-96 cell culture insert plates with 1 μm PET filters (Sigma) at an air liquid interface for at least 4 weeks using PneumaCult™-ALI Medium (Stemcell Technologies). Briefly, the HBECs were first expanded in cell culture flasks before seeding 10,000 cells per well submerged in PneumaCult™-Ex Plus Medium. After 1 week, the cells were switched into PneumaCult™-ALI Medium and medium was removed from the apical surface. The air liquid interface was maintained, and the medium exchanged every 2-3 days for at least 4 weeks to allow for differentiation of the cells. Prior to infection, the apical surface was rinsed once with DPBS and compounds were added to the basolateral chamber. 20,000 PFU SARS-CoV-2 strain USA-WA1/2020 were added to the apical surface in 50 μL PBS and allowed to incubate for 2 h. The inoculum was then removed, and the cells rinsed once with DPBS. The medium was exchanged, and fresh compound added at 24 and 48 h post-infection. Apical washes were collected at 72 h post-infection by adding 100 μL DPBS to the apical surface for 15 minutes. RNA was isolated from the apical washes using the PureLink™ Pro 96 Viral RNA/DNA Purification Kit (Thermo Fisher) and analyzed for viral RNA levels by RT-qPCR using the SuperScript™ III Platinum™ One-Step qRT-PCR Kit (Thermo Fisher) and the 2019-nCoV N1 CDC Primers and Probe set (Integrated DNA Technologies). A standard curve was generated by isolating RNA from serial dilutions of the stock virus and used to determine the PFU equivalents/mL for each sample. The viral load reductions were then determined for each experimental compound treatment compared to the neutral DMSO control and plotted in log scale. Cytotoxicity was assessed by measuring LDH activity in the basolateral media using a Cytotoxicity Detection kit (LDH) (Sigma) following the manufacturer's instructions. […] Technical triplicates were run for both antiviral and cytotoxicity readouts. […]

[15] = rat, oral; cited from earlier work
[16] = dog, oral; cited from earlier work
[17] = system: SARS-CoV-2; assay: Golden Syrian Hamster SARS-CoV-2 efficacy model; format: in vivo; conditions: for live viral titers in the lungs: day 5, plaque assay
[18] = Pharmacokinetic studies in Syrian hamsters; format: in vivo; conditions: single 500 mg/kg PO dose, hamster plasma
Description: Pharmacokinetic Studies. Pharmacokinetic studies were conducted at Scripps Research Institute's Animal Models Core in accordance with IACUC guidelines (IACUC Protocol #09-0004-5). Eight-week old male Syrian Hamsters (Charles River) (three per group) were dosed PO as indicated for each compound and formulation. Plasma concentration of each test article was monitored up to 48 h. Nelfinavir was formulated in 10% DMSO/90% corn oil and MK-4482 was formulated in 10% PEG400/2.5% Cremaphor RH40 for both pharmacokinetic and efficacy studies.

[19] = Severe acute respiratory syndrome coronavirus 2, HeLa-ACE2, 24 h, read-out: CoV-2 EC50 [μM] (Geomeans, n ≥ 2)
[20] = Severe acute respiratory syndrome coronavirus 2, HeLa-ACE2, read-out: SARS CoV-2 EC50 (μM)
[21] = CC50 [μM] (Geomeans, n ≥ 2 except where indicated: *n = 1)
[22] = Severe acute respiratory syndrome coronavirus 2, HeLa-ACE2, read-out: SARS-CoV-2 EC50

Row | Structure (SMILES) | Synergy score with remdesivir (δ) ([1]; Table 3) | EC50 [3, 19] [µM] | EC50 [3, 20] [µM] | EC50 [4] [µM] | CC50 [5, 21] [µM] | CC50 ([5]; Uninfected HeLa-ACE2 CC50 (μM)) [µM] | HeLa-ACE2 CC50/CoV-2 EC50 [6] | activity in Calu-3 infection assay [8] | further results
1 | CCN1CCC(c2cc(C)c3nc(-c4cc5c(C)nc(C)cn5n4)cc(=O)n3c2)CC1 [SMN-C3] | −0.37 | 1.4 | 1.4 | > 8.14 | 7.16 | 7.16 | 5.12 | – | Synergy score with remdesivir (δ) ([1]; Table 1, ZIP model, δ>10 synergy, δ<−10 antagonism, between additive): −0.365; Cmax ([2]; oral): ~2000 nM
2 | CC[C@H]1OC(=O)[C@H](C)[C@@H](O[C@H]2C[C@@](C)(OC)[C@@H](O)[C@H](C)O2)[C@H](C)[C@@H](O[C@@H]2O[C@H](C)C[C@H](N(C)C)[C@H]2O)[C@](C)(O)C[C@@H](C)CN(C)[C@H](C)[C@@H](O)[C@]1(C)O [azithromycin] | – | – | – | – | – | – | – | not active | classification as entry inhibitor in HeLa-ACE2 cells [7]: entry inhibitors
3 | CCC(CC)COC(=O)[C@H](C)N[P@](=O)(OC[C@H]1O[C@@](C#N)(c2ccc3c(N)ncnn23)[C@H](O)[C@@H]1O)Oc1ccccc1 [Remdesivir] | – | 0.127 | 0.127 | > 9.6 | – | > 8.46 | 78.7 | – | mortality of hospitalized COVID-19 patients [9]: failed to reduce mortality; activity when treatment initiated at 1 hpi [7]: effectively blocked the infection; Cmax [10]: ~5000 nM; t1/2 [10]: ~1 h (human oral)(15); CC50 [11]: 9970 nM; median time to recovery [12]: 11 days; EC50 [3, 22]: 0.194 ± 0.02 µM; EC50 [13]: 444 nM; CC50 ([5]; uninfected HeLa-ACE2 CC50): > 40 µM; increase in EC50 from MOI=1 to MOI=26 [6]: 2.7 fold; EC50 ([6]; read-out: SARS-CoV-2 EC50): 300 nM; viral replication in ALI-HBECs [14]: inhibited viral replication
4 | N=C(N)c1ccc2cc(OC(=O)c3ccc(N=C(N)N)cc3)ccc2c1 [nafamostat mesylate] | – | – | – | – | – | – | – | active | activity in HeLa-ACE2 infection assay ([6]; text b101-b103): not active; viral replication in ALI-HBECs [14]: inhibited viral replication
5 | COc1cc(-n2cnc3cc(-c4ccc(Cl)cc4)sc3c2=O)ccc1OCCN1CCCC1 [GW-803430] | – | 1.7 | – | – | 18.9 | – | 11.16 | – | t1/2 [2]: ~11 h (mouse)(38); Cmax [15]: ~585 nM
6 | CCN(CCO)CCCC(C)Nc1ccnc2cc(Cl)ccc12 (stereo not drawn) [hydroxychloroquine, nasal, hydroxychloroquine] | −1.572 | 0.458 | 0.458 | – | > 18.3 | > 18.3 | >40.04 | not active | mortality of hospitalized COVID-19 patients [9]: failed to reduce mortality; classification as entry inhibitor in HeLa-ACE2 cells [7]: entry inhibitors; activity when treatment initiated at 1 hpi [7]: Loss of activity; Cmax [10]: ~1700 nM; t1/2 [10]: ~55 h (human oral)(18)
7 | O=S(=O)(Nc1ccc(CCNC[C@H](O)c2cccnc2)cc1)c1ccc(-c2nc(-c3ccc(C(F)(F)F)cc3)cs2)cc1 [L 796568] | – | 1.04 | 1.04 | 3.14 | 5.51 | 5.51 | 5.28 | – | Cmax [16]: ~300 nM; t1/2 [16]: ~14 h (dog, oral)(32)
8 | Cc1cccc(/C=N/Nc2cc(N3CCOCC3)nc(OCCc3ccccn3)n2)c1 [Apilimod] | 3.57 | < 0.006 | < 0.006 | > 9.6 | > 27.8 | > 27.8 | >4353.33 | not active | classification as entry inhibitor in HeLa-ACE2 cells [7]: entry inhibitors; activity when treatment initiated at 1 hpi [7]: Loss of activity; interaction with remdesivir [1]: additive; Cmax [10]: ~600 nM; t1/2 [10]: ~3 h (human, oral)(27); EC50 [3, 22]: 0.184 µM; CC50 ([5]; uninfected HeLa-ACE2 CC50): > 40 µM; increase in EC50 from MOI=1 to MOI=26 [6]: 3.7 fold; viral replication in ALI-HBECs [14]: did not
9 | COc1ccc2cc1Oc1ccc(cc1)C[C@H]1c3cc(c(OC)cc3CCN1C)Oc1c(OC)c(OC)cc3c1[C@H](C2)N(C)CC3 [Hanfangchin A] | −3.61 | 1.18 | 1.18 | – | > 18.9 | > 18.9 | >16.08 | – | Cmax [15]: ~500 nM; t1/2 [15]: ~20 h (rats, oral)(31)
10 | CC(C)C(=O)OC[C@H]1O[C@@H](n2ccc(NO)nc2=O)[C@H](O)[C@@H]1O [MK-4482/EIDD-2801/Molnupiravir, Molnupiravir] | – | > 9.45 | – | – | > 39.8 | – | >4.21 | – | viral reduction compared to vehicle control ([17]; 50 mg/kg PO BID, day 5): 99%; live viral titers in the lungs ([17]; 150 mg/kg PO BID): undetectable; host immune response (RNA Seq on hamster lungs) ([17]; 500 mg/kg PO BID): near-complete protection from host immune response; live viral titers in the lungs ([17]; 500 mg/kg PO BID): undetectable; lung histological examination ([17]; MK-4482-treated hamsters vs vehicle): protected; time over HeLa-ACE2 and Calu-3 EC50 [18]: ≥ 7 h; activity in HeLa-ACE2 infection assay [6]: not active
11 | Cc1c(O)cccc1C(=O)N[C@@H](CSc1ccccc1)[C@H](O)CN1C[C@H]2CCCC[C@H]2C[C@H]1C(=O)NC(C)(C)C [nelfinavir] | – | – | – | – | – | – | – | – | protection from weight loss and viral replication ([17]; 500 mg/kg PO BID): failed to protect animals from weight loss and viral replication; time over Calu-3 SARS-CoV-2 EC50 [18]: ~3 h

— patent US20230346820A1, “METHODS AND COMPOSITIONS FOR THE TREATMENT OF SARS-COV-2” (priority 2020, published 2023)
